Experimental data published in ChEMBL document CHEMBL5137015, “Design, synthesis, and evaluation of a novel series of mono-indolylbenzoquinones derivatives for the potential treatment of breast cancer” (Eur J Med Chem, 2022).
Calls of active or inactive are those of the source. No cut-off for these calls is given here.

Columns and labels:
4T1 [1] = assay: Antitumor activity against mouse 4T1 cells implanted in Balb/c mouse assessed as apoptotic rate of dissected tumor cell at 50 mg/kg administered intratumorally every four days for 14 days in the presence of liquid cyanoacrylate by flow cytometric analysis (reference value: 64.83%); assay type: functional; settings: route it(Intratumoral), time 14 day
MDA-MB-231 [2] = assay: Induction of cell cycle arrest in human MDA-MB-231 cells assessed as decrease in G1 phase cells at 10 uM incubated for 24 hrs by PI staining based flow cytometric analysis (reference value: 74.44%); assay type: functional; design: scale not given: the % may be the effect or the level left
MDA-MB-231 [3] = assay: Induction of apoptosis in human MDA-MB-231 cells assessed as apoptotic cells at 10 uM incubated for 24 hrs by Annexin V-FITC/propidium iodide staining based flow cytometric method (reference value: 5.68%); assay type: functional
MDA-MB-231 [4] = assay: Induction of apoptosis in human MDA-MB-231 cells assessed as late apoptotic cells by measuring green fluorescence at 0.01 to 1 uM by Annexin V-FITC staining based fluorescence microscopic analysis; assay type: functional, cell-based; settings: dose 0.01-1 µM
MDA-MB-231 [5] = assay: Induction of apoptosis in human MDA-MB-231 cells assessed as late apoptotic cells by measuring red fluorescence at 0.01 to 1 uM by PI staining based fluorescence microscopic analysis; assay type: functional, cell-based; settings: dose 0.01-1 µM
MDA-MB-231 [6] = assay: Induction of apoptosis in human MDA-MB-231 cells assessed as nuclear chromatin condensation at 1 uM incubated for 24 hrs by transmission electron microscopic analysis; assay type: functional, cell-based
MDA-MB-231 [7] = assay: Induction of apoptosis in human MDA-MB-231 cells assessed as increase in cytoplasmic vacuoles at 1 uM incubated for 24 hrs by transmission electron microscopic analysis; assay type: functional, cell-based
MDA-MB-231 [8] = assay: Induction of apoptosis in human MDA-MB-231 cells assessed as increase in pro-caspase 3 level at 100 nM incubated for 48 hrs; assay type: functional, cell-based
MDA-MB-231 [9] = assay: Induction of apoptosis in human MDA-MB-231 cells assessed as increase in catalase level at 100 nM incubated for 48 hrs; assay type: functional, cell-based
MDA-MB-231 [10] = assay: Induction of apoptosis in human MDA-MB-231 cells assessed as increase in HTRA2/omi level at 100 nM incubated for 48 hrs; assay type: functional, cell-based
MDA-MB-231 [11] = assay: Induction of apoptosis in human MDA-MB-231 cells assessed as increase in p53 protein expression at 1 uM incubated for 24 hrs by Western blot analysis; assay type: functional, cell-based
MDA-MB-231 [12] = assay: Induction of apoptosis in human MDA-MB-231 cells assessed as increase in caspase 9 expression at 0.5 to 3 times of IC50 concentration by Western blot analysis; assay type: functional, cell-based
MDA-MB-231 [13] = assay: Induction of apoptosis in human MDA-MB-231 cells assessed as increase in caspase 3 expression at 0.5 to 3 times of IC50 concentration by Western blot analysis; assay type: functional, cell-based
MDA-MB-231 [14] = assay: Induction of apoptosis in human MDA-MB-231 cells assessed as decrease in Bcl-2 expression at 0.5 to 3 times of IC50 concentration by Western blot analysis; assay type: functional, cell-based
MDA-MB-231 [15] = assay: Induction of apoptosis in human MDA-MB-231 cells assessed as change in membrane osmotic transport capacity; assay type: functional, cell-based
MDA-MB-231 [16] = assay: Induction of mitochondrial membrane potential loss in human MDA-MB-231 cells assessed as increase in green fluorescence intensity at 0.1 to 1 uM measured after 24 hrs byJC-1 staining based fluorescence microscopic analysis; assay type: functional, cell-based; settings: dose 0.1-1 µM
[17] = Acute toxicity in mouse assessed as death rate ratio at 300 mg/kg, ip measured over 14 days; assay type: organism-based; settings: in vivo, 336 h, time 14 day
[18] = Acute toxicity in mouse assessed as lethal dose measured over 14 days; settings: in vivo, 336 h, time 14 day
4T1 [19] = assay: Antitumor activity against mouse 4T1 cells implanted in Balb/c mouse assessed as tumor growth inhibition by measuring T/C ratio at 50 mg/kg administered intratumorally every four days for 14 days in the presence of liquid cyanoacrylate; assay type: functional; settings: route it(Intratumoral), time 14 day
[20] = Toxicity in Balb/c mouse implanted with mouse 4T1 cells assessed as effect on body weight at 50 mg/kg administered intratumorally every four days for 14 days in the presence of liquid cyanoacrylate; assay type: organism-based; settings: in vivo, other, 336 h, route it(Intratumoral), time 14 day
[21] = Toxicity in Balb/c mouse implanted with mouse 4T1 cells assessed as heart lesions at 50 mg/kg administered intratumorally every four days for 14 days in the presence of liquid cyanoacrylate by H&E staining based histopathological analysis; assay type: organism-based; settings: in vivo, other, 336 h, route it(Intratumoral), time 14 day
[22] = Toxicity in Balb/c mouse implanted with mouse 4T1 cells assessed as spleen lesions at 50 mg/kg administered intratumorally every four days for 14 days in the presence of liquid cyanoacrylate by H&E staining based histopathological analysis; assay type: organism-based; settings: in vivo, other, 336 h, route it(Intratumoral), time 14 day
[23] = Toxicity in Balb/c mouse implanted with mouse 4T1 cells assessed as effect on body weight at 50 mg/kg, ip administered every two days for 14 days; assay type: organism-based; settings: in vivo, 336 h, time 14 day
[24] = Toxicity in Balb/c mouse implanted with mouse 4T1 cells assessed as heart lesions at 50 mg/kg, ip administered every two days for 14 days by H&E staining based histopathological analysis; assay type: organism-based; settings: in vivo, 336 h, time 14 day
[25] = Toxicity in Balb/c mouse implanted with mouse 4T1 cells assessed as kidney lesions at 50 mg/kg, ip administered every two days for 14 days by H&E staining based histopathological analysis; assay type: organism-based; settings: in vivo, 336 h, time 14 day
[26] = Toxicity in Balb/c mouse implanted with mouse 4T1 cells assessed as lung lesions at 50 mg/kg administered intratumorally every four days for 14 days by H&E staining based histopathological analysis; assay type: organism-based; settings: in vivo, other, 336 h, route it(Intratumoral), time 14 day
[27] = Toxicity in Balb/c mouse implanted with mouse 4T1 cells assessed as kidney lesions at 50 mg/kg administered intratumorally every four days for 14 days by H&E staining based histopathological analysis; assay type: organism-based; settings: in vivo, other, 336 h, route it(Intratumoral), time 14 day
[28] = Toxicity in Balb/c mouse implanted with mouse 4T1 cells assessed as spleen lesions at 50 mg/kg administered intratumorally every four days for 14 days by H&E staining based histopathological analysis; assay type: organism-based; settings: in vivo, other, 336 h, route it(Intratumoral), time 14 day
4T1 [29] = assay: Antitumor activity aginst mouse 4T1 cells implanted in Balb/c mouse assessed as nuclei shrinkage at 50 mg/kg, ip administered every two days for 14 days; assay type: functional, organism-based; settings: time 14.0 day
4T1 [30] = assay: Antitumor activity aginst mouse 4T1 cells implanted in Balb/c mouse assessed as nuclei shrinkage at 50 mg/kg administered intratumorally every four days for 14 days; assay type: functional, organism-based; settings: route it(Intratumoral), time 14.0 day
4T1 [31] = assay: Antitumor activity aginst mouse 4T1 cells implanted in Balb/c mouse assessed as nuclei disappearance at 50 mg/kg administered intratumorally every four days for 14 days; assay type: functional, organism-based; settings: route it(Intratumoral), time 14.0 day
4T1 [32] = assay: Antitumor activity against mouse 4T1 cells xenografted in Balb/c mouse assessed as tumor growth inhibition at 200 mg/kg administered topically over the tumor surface every two days for 14 days in the presence of cyanoacrylate relative to control; assay type: functional; settings: 4T1, 336 h, route top, time 14 day, read-out: TGI
[33] = Toxicity in Balb/c mouse xenografted with mouse 4T1 cells assessed as liver lesions at 200 mg/kg administered topically over the tumor surface every two days for 14 days in the presence of cyanoacrylate by H&E staining based histopathological analysis; assay type: organism-based; settings: in vivo, topical_or_ocular, 336 h, route top, time 14 day
[34] = Toxicity in Balb/c mouse xenografted with mouse 4T1 cells assessed as spleen lesions at 200 mg/kg administered topically over the tumor surface every two days for 14 days in the presence of cyanoacrylate by H&E staining based histopathological analysis; assay type: organism-based; settings: in vivo, topical_or_ocular, 336 h, route top, time 14 day
[35] = Drug metabolism in Balb/c mouse spleen implanted with mouse 4T1 cells assessed as 2-methyl hydroxylation of parent compound causing metabolite formation by LC-MS analysis; assay type: ADME, tissue-based

Cc1[nH]c2ccccc2c1C1=C(Cl)C(=O)C(Cl)=C(N2CCOCC2)C1=O
Activity (4T1 [1]): 76.24% | Activity (MDA-MB-231 [2]): 16.84% | Activity (MDA-MB-231 [3]): 31.69% | Activity (MDA-MB-231 [4]): Active | Activity (MDA-MB-231 [5]): Active | Activity (MDA-MB-231 [6]): Active | Activity (MDA-MB-231 [7]): Active | Activity (MDA-MB-231 [8]): Active | Activity (MDA-MB-231 [9]): Active | Activity (MDA-MB-231 [10]): Active | Activity (MDA-MB-231 [11]): Active | Activity (MDA-MB-231 [12]): Active | Activity (MDA-MB-231 [13]): Active | Activity (MDA-MB-231 [14]): Active | Activity (MDA-MB-231 [15]): Active | Activity (MDA-MB-231 [16]): Active | Ratio [17]: 0.33 | LD50 [18]: 374 mg/kg | T/C (4T1 [19]): 42% | Activity [20]: Non-Toxic | Activity [21]: Non-Toxic | Activity [22]: Non-Toxic | Activity [23]: Non-Toxic | Activity [24]: Non-Toxic | Activity [25]: Non-Toxic | Activity [26]: Non-Toxic | Activity [27]: Non-Toxic | Activity [28]: Non-Toxic | Activity (4T1 [29]): Active | Activity (4T1 [30]): Active | Activity (4T1 [31]): Active | inhibition in vivo at 200 mg/kg (4T1 [32]): 38% | Activity [33]: Non-Toxic | Activity [34]: Non-Toxic | Drug metabolism [35]: Metabolite_Detected
